We go through 25 compounds from patent US7435837B2, “Dihydrobenzofuranyl alkanamine derivatives and methods for using same” (Wyeth, priority 2003, dated 2008).

In assay [1] the target is T1, human 5-hydroxytryptamine-2C (h5-HT2C) receptor (Homo sapiens, UniProt P28335).
T1 construct: expressed in transfected cells; host or cells: CHO (Chinese Hamster Ovary) cells; membranes
T1 sequence (P28335 33-458): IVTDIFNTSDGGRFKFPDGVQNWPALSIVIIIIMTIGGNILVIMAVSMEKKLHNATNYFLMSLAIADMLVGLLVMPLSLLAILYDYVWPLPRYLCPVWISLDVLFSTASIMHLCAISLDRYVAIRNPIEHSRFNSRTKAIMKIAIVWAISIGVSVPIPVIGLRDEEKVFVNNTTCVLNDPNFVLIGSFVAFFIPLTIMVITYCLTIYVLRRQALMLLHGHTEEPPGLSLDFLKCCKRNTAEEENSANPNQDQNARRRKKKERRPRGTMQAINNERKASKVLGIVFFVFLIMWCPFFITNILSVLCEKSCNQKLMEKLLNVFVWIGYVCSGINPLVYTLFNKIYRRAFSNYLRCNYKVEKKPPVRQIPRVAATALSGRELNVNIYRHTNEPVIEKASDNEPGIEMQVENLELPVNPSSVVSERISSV
Description: [125I]DOI binding to membranes of CHO cells expressing the human 5-HT2C receptor. To be noted: [125I]DOI radioligand, CHO cell membranes, room temperature 60 min; read-out: 5-HT2C Affinity Ki.

The next assay has as its target T2, human 5-HT2C receptor (Homo sapiens, UniProt P28335).
T2 sequence (P28335 33-458): T1 sequence (P28335 33-458)
Put plainly: 5-HT2C receptor-stimulated calcium mobilization (FLIPR) in CHO cells.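 On all read-outs here: Fluo-3-AM fluorescence read on FLIPR every 1 s, agonist added after 10 baseline reads, response taken as peak minus lowest raw fluorescence count.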 The format is cell-based. To be noted: for Emax: CHO, percentage of the response observed with a maximally effective concentration of 5-HT, read-out: 5-HT2C Function Emax (%); for EC50: calcium mobilization, CHO cells stably expressing human 5-HT2C, read-out: 5-HT2C Function EC50. On the technique in general: A change in cytosolic calcium serves as a functional read-out for many receptors and channels.

SMILES strings stand for the structures.

Turning to `NCC1Cc2c(cccc2-c2ccccc2)O1` (racemic) [Example 1, (±)-1-(4-phenyl-2,3-dihydro-1-benzofuran-2-yl)methanamine], the inhibition constant Ki in assay [1] was 0.043 µM. At human 5-HT2C receptor, the maximal effect (Emax) is 90% and the concentration for a half-maximal effect (EC50) is 0.926 µM.
Turning to `Cc1ccccc1-c1cccc2c1CC(CN)O2` (racemic) [Example 4, (±)-1-[4-(2-methylphenyl)-2,3-dihydro-1-benzofuran-2-yl]methanamine], the Ki in assay [1] was 0.026 µM. Also, at human 5-HT2C receptor, the Emax is 100% and the 50% effective concentration (EC50) amounted to 0.562 µM.
The like results for `NCC1Cc2cccc(C3CCCC3)c2O1` (racemic) [Example 8, (±)-(7-cyclopentyl-2,3-dihydro-1-benzofuran-2-yl)methylamine] were, in that order, 0.009 µM, 85% and 0.188 µM.
Consider `CC(C)c1cccc2c1OC(CN)C2` (racemic) [Example 18, (±)-(7-isopropyl-2,3-dihydro-1-benzofuran-2-yl)methylamine], for which, in assay [1], the inhibition constant Ki came out at 0.005 µM. On human 5-HT2C receptor, the Emax worked out at 100% and the EC50 worked out at 0.0096 µM.
The like results for `Cc1c(Cl)cc(C(C)C)c2c1CC(CN)O2` (racemic) [Example 21, (±)-1-(5-chloro-7-isopropyl-4-methyl-2,3-dihydro-1-benzofuran-2-yl)methanamine] were, in that order, 0.009 µM, 85% and 0.086 µM.
For `CC(C)(C)c1cc(Cl)cc2c1OC(CN)C2` (racemic) [Example 27, (±)-1-(7-tert-butyl-5-chloro-2,3-dihydro-1-benzofuran-2-yl)methanamine], in assay [1], the Ki came out at 0.039 µM. In addition, at human 5-HT2C receptor, the Emax was found to be 80% and the EC50 was found to be 2.02 µM.
As for `NCC1Cc2cccc(-c3ccsc3)c2O1` (racemic) [Example 44, (±)-1-(7-thien-3-yl-2,3-dihydro-1-benzofuran-2-yl)methanamine], in assay [1], the Ki was determined as 0.003 µM. Further, at human 5-HT2C receptor, the maximum response (Emax) amounted to 100% and the EC50 came out at 0.007 µM.
On the same counts, the results for `Cc1ccccc1-c1cccc2c1OC(CN)C2` (racemic) [Example 47, (±)-1-[7-(2-methylphenyl)-2,3-dihydro-1-benzofuran-2-yl]methanamine] are 0.0004 µM, 100% and 0.0054 µM.
On the same counts, the results for `NCC1Cc2cccc(-c3ccccc3F)c2O1` (racemic) [Example 50, (±)-1-[7-(2-fluorophenyl)-2,3-dihydro-1-benzofuran-2-yl]methanamine] are 0.001 µM, 100% and 0.014 µM.
With `NCC1Cc2cccc(-c3ccccc3C(F)(F)F)c2O1` (racemic) [Example 53, (±)-1-{7-[2-(trifluoromethyl)phenyl]-2,3-dihydro-1-benzofuran-2-yl}methanamine], the Ki in assay [1] came out at 0.001 µM. On human 5-HT2C receptor, the Emax is 80% and the EC50 was 0.045 µM.
Take `Cc1cccc(C)c1-c1cccc2c1OC(CN)C2` (racemic) [Example 56, (±)-1-[7-(2,6-dimethylphenyl)-2,3-dihydro-1-benzofuran-2-yl]methanamine]: the Ki in assay [1] is 0.001 µM. On human 5-HT2C receptor, the Emax was 100% and the EC50 turned out to be 0.06 µM.
The like results for `COc1ccccc1-c1cccc2c1OC(CN)C2` (racemic) [Example 59, (±)-1-[7-(2-methoxyphenyl)-2,3-dihydro-1-benzofuran-2-yl]methanamine] were, in that order, 0.002 µM, 100% and 0.127 µM.
With `NCC1Cc2cccc(-c3ccccc3Cl)c2O1` (racemic) [Example 60, (±)-1-[7-(2-chlorophenyl)-2,3-dihydro-1-benzofuran-2-yl]methanamine], in assay [1], the Ki is 0.0003 µM. Also, on human 5-HT2C receptor, the Emax was found to be 100% and the EC50 was 0.012 µM.
Take `CC(C)c1ccccc1-c1cccc2c1OC(CN)C2` (racemic) [Example 61, (±)-[7-(2-isopropylphenyl)-2,3-dihydro-1-benzofuran-2-yl]methylamine]: in assay [1], the inhibition constant (Ki) was determined as 0.037 µM. Moreover, on human 5-HT2C receptor, the Emax was found to be 30% and the EC50 came out at 1.09 µM.
Take `NCC1Cc2cccc(-c3cccc(F)c3)c2O1` (racemic) [Example 64, (±)-1-[7-(3-fluorophenyl)-2,3-dihydro-1-benzofuran-2-yl]methanamine]: the Ki in assay [1] stood at 0.013 µM. Moreover, at human 5-HT2C receptor, the Emax worked out at 100% and the EC50 stood at 0.07 µM.
On to `NCC1Cc2cccc(-c3cccc(Cl)c3)c2O1` (racemic) [Example 65, (±)-1-[7-(3-chlorophenyl)-2,3-dihydro-1-benzofuran-2-yl]methanamine], for which the Ki in assay [1] is 0.011 µM. At human 5-HT2C receptor, the Emax is 100% and the concentration giving a half-maximal response (EC50) worked out at 0.187 µM.
The like results for `COc1cccc(-c2cccc3c2OC(CN)C3)c1` (racemic) [Example 68, (±)-1-[7-(3-methoxyphenyl)-2,3-dihydro-1-benzofuran-2-yl]methanamine] were, in that order, 0.005 µM, 90% and 0.144 µM.
For `Cc1ccc(-c2cccc3c2OC(CN)C3)cc1` (racemic) [Example 70, (±)-1-[7-(4-methylphenyl)-2,3-dihydro-1-benzofuran-2-yl]methanamine], the inhibitory constant (Ki) in assay [1] was 0.002 µM. In addition, on human 5-HT2C receptor, the maximal effect (Emax) was 100% and the EC50 was 0.022 µM.
The like results for `NCC1Cc2cccc(-c3ccc(F)cc3)c2O1` (racemic) [Example 73, (±)-1-[7-(4-fluorophenyl)-2,3-dihydro-1-benzofuran-2-yl]methanamine] were, in that order, 0.005 µM, 100% and 0.041 µM.
`NCC1Cc2cccc(-c3ccc(Cl)cc3)c2O1` (racemic) [Example 76, (±)-1-[7-(4-chlorophenyl)-2,3-dihydro-1-benzofuran-2-yl]methanamine]: in assay [1], the Ki was found to be 0.003 µM. For the same compound, on human 5-HT2C receptor, the maximum response (Emax) worked out at 90% and the EC50 is 0.025 µM.
`COc1ccc(-c2cccc3c2OC(CN)C3)cc1` (racemic) [Example 79, (±)-1-[7-(4-methoxyphenyl)-2,3-dihydro-1-benzofuran-2-yl]methanamine]: the Ki in assay [1] was 0.002 µM. Moreover, on human 5-HT2C receptor, the maximum response (Emax) was 95% and the 50% effective concentration (EC50) was determined as 0.024 µM.
Take `NCC1Cc2cccc(-c3ccc(C(F)(F)F)cc3)c2O1` (racemic) [Example 82, (±)-1 {7-[4-(trifluoromethyl)phenyl]-2,3-dihydro-1-benzofuran-2-yl}methanamine]: the inhibitory constant (Ki) in assay [1] amounted to 0.015 µM. For the same compound, at human 5-HT2C receptor, the maximal response (Emax) was 95% and the EC50 was 0.275 µM.
`NCC1Cc2cccc(-c3ccc(Cl)cc3Cl)c2O1` (racemic) [Example 83, (±)-1-[7-(2,4-dichlorophenyl)-2,3-dihydro-1-benzofuran-2-yl]methanamine]: the Ki in assay [1] came out at 0.001 µM. At human 5-HT2C receptor, the maximal effect (Emax) is 100% and the EC50 is 0.0079 µM.
The like results for `NCC1Cc2cc(Cl)cc(-c3ccccc3Cl)c2O1` (racemic) [Example 87, (±)-1-[5-chloro-7-(2-chlorophenyl)-2,3-dihydro-1-benzofuran-2-yl]methanamine] were, in that order, 0.0008 µM, 90% and 0.02 µM.
With `Cc1ccccc1-c1cc(Cl)cc2c1OC(CN)C2` (racemic) [Example 95, (±)-1-[5-chloro-7-(2-methylphenyl)-2,3-dihydro-1-benzofuran-2-yl]methanamine], the Ki in assay [1] is 0.001 µM. At human 5-HT2C receptor, the maximal effect (Emax) was found to be 100% and the half-maximal effective concentration (EC50) is 0.065 µM.

A word on the Ki: it is a dissociation constant, usually derived from enzyme kinetics or from competition with a known ligand. A word on the Emax: it is the size of the effect at its maximum, as opposed to the concentration needed. As usually defined, the EC50 is the concentration that produces a half-maximal response.
